Values of other authors, collected in patent US20140309168A1, “MODIFIED PEPTIDES AND PROTEINS” (AmideBio, LLC, priority 2010, published 2014).

Details: background statement on the marketed peptide

enfuvirtide
in vivo half life: about 3.8 hours
